Converted amounts (≈) assume the structure as drawn.
How the values were obtained:
Experiment in all cases: MIC against standard strains (agar dilution)
Format in all cases: cell-based
[1] = tested on: Staphylococcus aureus 241; conditions: Staphylococcus aureus 241; Mueller-Hinton agar, 20 hours at 37°C; read-out: MIC
Summary of the method: (§1)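 Each strain, at 10^7 cfu/mℓ, was inoculated onto compound-containing Mueller-Hinton agar prepared by twofold serial dilution; incubation lasted 20 hours at 37°C.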

[2] = tested on: Klebsiella pneumoniae 2011E; conditions: Klebsiella pneumoniae 2011E; Mueller-Hinton agar, 20 hours at 37°C; read-out: MIC
Summary of the method: as §1

[3] = tested on: Morganella morganii 1375E; conditions: Morganella morganii 1375E; Mueller-Hinton agar, 20 hours at 37°C; read-out: MIC
Summary of the method: as §1

[4] = tested on: Staphylococcus aureus giorgio; conditions: Staphylococcus aureus giorgio; Mueller-Hinton agar, 20 hours at 37°C; read-out: MIC
Summary of the method: as §1

[5] = tested on: Acinetobacter calcoaceticu 15473; conditions: Acinetobacter calcoaceticu 15473; Mueller-Hinton agar, 20 hours at 37°C; read-out: MIC
Summary of the method: as §1

[6] = tested on: Escherichia coli 3190Y; conditions: Escherichia coli, 3190Y, 20 h
Summary of the method: as §1

[7] = tested on: Enterobacter cloacae IND+VE 1194E; conditions: Enterobacter cloacae IND+VE 1194E; Mueller-Hinton agar, 20 hours at 37°C; read-out: MIC
Summary of the method: as §1

[8] = tested on: Enterobacter cloacae P99; conditions: Enterobacter cloacae P99; Mueller-Hinton agar, 20 hours at 37°C; read-out: MIC
Summary of the method: as §1

[9] = tested on: Moraxella catarrhalis C2431; conditions: Moraxella catarrhalis C2431; Mueller-Hinton agar, 20 hours at 37°C; read-out: MIC
Summary of the method: as §1

[10] = tested on: Salmonella typhimurium 14028; conditions: Salmonella enterica; Salmonella typhimurium 14028; Mueller-Hinton agar, 20 hours at 37°C; read-out: MIC
Summary of the method: as §1

CO/N=C(\C(=O)NC1C(=O)N2C(C(=O)O)=C(Sc3cc(N)nc(N)n3)CSC12)c1csc(N)n1 (stereo not shown) [Compound No. 25, 7-[(Z)-2-(2-amino-thiazol-4-yl)-2-methoxyimino-acetylamino]-3-(2,6-diamino-pyrimidin-4-ylsulfanyl)-8-oxo-5-thia-1-azabicyclo[4,2,0]oct-2-ene-2-carboxylic acid]
MIC [1]: 8 µg/mL (≈ 15.3 µM) | MIC [2]: 0.5 µg/mL (≈ 0.955 µM) | MIC [3]: 0.13 µg/mL (≈ 0.248 µM) | MIC [4]: 0.5 µg/mL (≈ 0.955 µM) | MIC [5]: 64 µg/mL (≈ 122 µM) | MIC [6]: 0.031 µg/mL (≈ 0.0592 µM) | MIC [7]: > 64 µg/mL | MIC [8]: > 64 µg/mL | MIC [9]: ≤ 0.008 µg/mL | MIC [10]: 0.25 µg/mL (≈ 0.477 µM)

— patent EP1077981B1, “NOVEL CEPHALOSPORIN COMPOUNDS, PROCESSES FOR PREPARATION THEREOF AND ANTIMICROBIAL COMPOSITIONS CONTAINING THE SAME” (LG CHEMICAL LIMITED, priority 1998, dated 1999)
